Reference: US20110173718A1, “HERBICIDE TOLERANT PLANTS” (SYNGENTA CROP PROTECTION, INC., priority 2008, published 2011)

tested on: HST in spinach chloroplast extract; assay: HST assay (TLC, MFBQ formed), spinach chloroplast extract; format: biochemical; conditions: 25 ppm; TLC, estimated amount of MFBQ formed, relative to controls
Experimental: HST enzyme preparations for assay are also prepared directly from fresh plant material. For example HST enzyme preparations are from spinach. In the first step intact spinach chloroplasts are prepared from two lots of 500 g of fresh baby spinach leaves (e.g from the salad section of the local supermarket). Prepacked spinach is usually already washed, but if buying loose leaves these must be rinsed in water before proceeding. Stalks, large leaves and mid-ribs are removed. Each 500 g lot of leaves is added to 1.5 l of ‘Grinding medium’ in a 2 L plastic beaker. Grinding medium is cold (4° C.) 50 mM Tricine/NaOH buffer at pH 7.1 containing 330 mM glucose, 2 mM sodium isoascorbate, 5 mM MgCl2 and 0.1% bovine serum albumen The beaker, kept at 4° C., is placed under a Polytron 6000 blender, fitted with a 1.5″cutting probe and the mixture blended in short bursts of 5-8 sec up to 8-10K rpm until all the leaves are macerated. The homogenate is filtered into a 5 L beaker (embedded in an ice bucket) through four layers of muslin, and two layers of 50μ mesh nylon cloth. The filtrate is transferred to 250 ml buckets of a Beckman GS-6 centrifuge and spun at […] (3020 rpm) for 2 min at 4° C. The supernatant is drained away and discarded to leave a sediment of chloroplasts. Chloroplasts are resuspended in a few ml of cold resuspension medium by gentle swirling and gentle use of a quill brush soaked in resuspension medium. Resuspension medium is 50 mM Hepes/KOH pH 7.8 containing 330 mM sorbitol, 2 mM EDTA, 5 mM KH2PO4, 2 mM MgCl2 and 0.1% bovine serum albumen at 4° C. The chloroplasts are resuspended in 5-10 ml of resuspension buffer, recentrifuged down and resuspended again in order to wash them. The chloroplasts are then once again centrifuged down and then broken by resuspension in about 5 ml of 50 mM Tricine-NaOH pH 7.8 to a protein concentration of about 40 mg/ml. The solution is stored frozen at −80° C. in aliquots. This resuspension is defrosted and used directly in HST activity assays. Alternatively, chloroplasts are prepared resuspended in 50 mM Tris/HCl buffer at pH 7.8 containing 330 mM sorbitol (alternative resuspension buffer) and layered on top of a percol gradient (comprising the same buffer containing 45% percol), spun down, the intact chloroplast fraction taken and washed 2 or 3 times in the alternative resuspension buffer and then spun down again, resuspended in breaking buffer (without sorbitol), flash frozen and stored in aliquots at −80° C.
Prenyltransferase (HST) activities are measured by determining the prenylation rates of [U—^14C]homogentisate using farnesyl diphosphate (FDP) as prenyl donor. ^14C homogentisate is prepared from ^14C tyrosine using L amino acid oxidase and HPPD. For inhibitor testing, compounds are dissolved in dimethylsulfoxide (DMSO). DMSO added at up to 2% v/v has no effect on assays. Control assays contain DMSO at the same concentration as in inhibitor containing assays.
Assays using spinach chloroplast extracts (100 μl final volume) contain up to 2 mg of chloroplast protein, 50 mM Tricine-NaOH pH 8.5, 50 mM MgCl2, 200 μM farnesyl diphosphate (FDP) and 26 μM ^14C-homogentisate (167 dpm/pmol). Assays are run for about an hour at 28° C. […] Lipophilic reactions products are extracted and analyzed essentially as described in the literature.
Using the above assays percentage inhibition of the amount of MFBQ formed at a range of doses of inhibitors relative to the control amount obtained with no inhibitor present is reported (Table 1). The better inhibitors give greater percentage inhibition at lower doses.

| Structure (SMILES) | Spinach chloroplast extract % I at 25 ppm |
| --- | --- |
| O=c1c(-c2c(F)ccc(Br)c2Cl)c(O)c2nccnc2n1CC(F)F [Compound 2.8] | 70% |
| O=c1c(-c2cc(C(F)(F)F)ccc2Cl)c(O)c2nccnc2n1CC(F)F [Compound 2.9] | 90% |
| O=c1c(-c2c(F)ccc(F)c2Cl)c(O)c2cccnc2n1CC(F)F [Compound 2.13] | 40% |
| O=c1c(-c2c(Cl)ccc(Cl)c2Cl)c(O)c2nccnc2n1CC(F)F [Compound 2.14] | 80% |
| Oc1c(Cl)c(F)nc(F)c1Cl [Compound 1.1, haloxydine] | 70% |

same assay, conditions: final concentration 500 ppm

| Structure (SMILES) | inhibition of the HST reaction |
| --- | --- |
| Oc1c(Cl)c(F)nc(F)c1Cl [Compound 1.1, haloxydine] | completely inhibit |
